Source: ChEMBL document CHEMBL3639362, “Pyrrolopyrazoles, potent kinase inhibitors” (2013)

Target: Serine/threonine-protein kinase PAK 4 (Homo sapiens, UniProt O96013)
Experiment: Enzymatic Assay: The enzymatic activity of PAK4 KD was measured by its ability to catalyzed the transfer of a phosphate residue from a nucleoside triphosphate to an amino acid side chain of a commercially available peptide (amino acid sequence EVPRRKSLVGTPYWM).

Chain of Serine/threonine-protein kinase PAK 4 (O96013 whole entry): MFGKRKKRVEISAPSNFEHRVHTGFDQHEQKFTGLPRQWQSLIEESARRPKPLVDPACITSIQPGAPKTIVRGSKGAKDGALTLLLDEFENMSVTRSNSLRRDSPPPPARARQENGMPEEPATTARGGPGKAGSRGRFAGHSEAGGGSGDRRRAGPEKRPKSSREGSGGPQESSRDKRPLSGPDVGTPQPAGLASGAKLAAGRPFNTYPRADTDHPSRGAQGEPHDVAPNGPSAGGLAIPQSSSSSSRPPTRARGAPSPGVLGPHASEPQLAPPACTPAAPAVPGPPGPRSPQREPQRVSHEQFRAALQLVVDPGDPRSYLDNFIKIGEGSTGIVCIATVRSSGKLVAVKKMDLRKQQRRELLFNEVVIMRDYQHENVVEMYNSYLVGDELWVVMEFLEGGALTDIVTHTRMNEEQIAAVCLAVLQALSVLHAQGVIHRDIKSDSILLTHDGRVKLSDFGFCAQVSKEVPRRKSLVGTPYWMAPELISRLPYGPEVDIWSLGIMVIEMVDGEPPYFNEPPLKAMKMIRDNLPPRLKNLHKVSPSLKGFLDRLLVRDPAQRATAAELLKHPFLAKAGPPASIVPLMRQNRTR

- EC50: > 4 µM
Compound: CC1(C)c2n[nH]c(Nc3nc(Cl)nc(N4CCC[C@H]4C(N)=O)n3)c2CN1C(=O)NC1C[C@@H]1c1ccccc1 (stereo partly specified)
